Test results as given in the supplement of paper PMC10331698.
± gives the standard deviation of the averaged measurements.

Assays:
Experiment in all cases: level (log10 ratio to DMSO vehicle control); higher = higher biomarker level / cell amount than vehicle control
Conditions in all cases: in DMSO
[1] = compound: O=C(O)CCC(F)(F)C(F)(F)C(F)(F)F [3:3 Fluorotelomer carboxylic acid]
Description: (§1)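 BioMAP Diversity Plus panel of 12 human primary cell co-culture systems (3C, 4H, LPS, SAg, BT, BF4T, BE3C, CASM3C, HDF3CGF, KF3CT, MyoF, Mphg). Compounds were added 1 h before stimulation and left for 24 h (MyoF 48 h; BT 72 h for soluble read-outs or 6 d for IgG). Biomarkers were read by ELISA, cytotoxicity by SRB, PBMC viability and proliferation by Alamar Blue. Each well value was divided by the mean of 8 DMSO control wells on the same plate and log10 transformed; duplicate blinded samples were tested at 4 concentrations.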

[2] = compound: O=S(=O)(O)C(F)(F)C(F)(F)C(F)(F)C(F)(F)C(F)(F)C(F)(F)C(F)(F)C(F)(F)F [Potassium perfluorooctanesulfonate]
Description: as §1

[3] = compound: O=S(=O)(O)C(F)(F)C(F)(F)C(F)(F)C(F)(F)C(F)(F)C(F)(F)C(F)(F)C(F)(F)F [Perfluorooctanesulfonic acid]
Description: as §1

Azathioprine = compound: Cn1cnc([N+](=O)[O-])c1Sc1ncnc2[nH]cnc12 [Azathioprine]
Description: as §1

[4] = compound: C=CC(=O)OCCC(F)(F)C(F)(F)C(F)(F)C(F)(F)F [2-(Perfluorobutyl)ethyl acrylate]
Description: as §1

[5] = compound: FC(F)(F)C(F)(F)C(F)(F)C(F)(F)C(F)(F)C(F)(F)C(F)(F)CCI [1-Iodo-1H,1H,2H,2H-perfluorononane]
Description: as §1

| Test System | level (log10) ([1]; 6700 nM) | level (log10) ([1]; 20000 nM) | level (log10) ([1]; 60000 nM) | level (log10) ([2]; 6700 nM) | level (log10) ([2]; 20000 nM) | level (log10) ([2]; 60000 nM) | level (log10) ([3]; 6700 nM) | level (log10) ([3]; 20000 nM) | level (log10) ([3]; 60000 nM) | level (log10) (Azathioprine; 1400 nM) | level (log10) (Azathioprine; 4200 nM) | level (log10) (Azathioprine; 13000 nM) | level (log10) (Azathioprine; 38000 nM) | level (log10) ([4]; 6700 nM) | level (log10) ([4]; 20000 nM) | level (log10) ([4]; 60000 nM) | level (log10) ([5]; 6700 nM) | level (log10) ([5]; 20000 nM) |
| --- | --- | --- | --- | --- | --- | --- | --- | --- | --- | --- | --- | --- | --- | --- | --- | --- | --- | --- |
| BF4T:IL-1alpha | -0.0035 ± 0.019 | -0.009 ± 0.02 | 0.003 | 0.003 ± 0.0028 | 0.0065 ± 0.0078 | 0.0125 ± 0.044 | 0.01 ± 0.011 | 0.002 ± 0.0014 | -0.002 ± 0.0099 | -0.0055 ± 0.019 | -0.0015 ± 0.0092 | -0.009 ± 0.0057 | 0.0005 ± 0.033 | -0.0115 ± 0.0078 | -0.0305 ± 0.011 | 0.012 ± 0.038 | -0.011 ± 0.0042 | 0.033 ± 0.031 |
| SAg:CXCL8/IL-8 | -0.0145 ± 0.00071 | -0.016 ± 0.011 | -0.0035 ± 0.013 | -0.0055 ± 0.018 | 0.0145 ± 0.036 | 0.025 ± 0.027 | -0.015 | 0.01 ± 0.0057 | 0.041 ± 0.0085 | 0.022 ± 0.1 | -0.038 ± 0.061 | -0.13 ± 0.021 | -0.304 ± 0.013 | -0.029 ± 0.0099 | -0.103 ± 0.013 | -0.31 ± 0.064 | -0.0055 ± 0.019 | 0.004 ± 0.045 |
| BT:B cell Proliferation | -0.018 ± 0.0085 | -0.0115 ± 0.042 | -0.011 ± 0.02 | 0.031 ± 0.016 | 0.0425 ± 0.018 | 0.0795 ± 0.005 | 0.0245 ± 0.0092 | 0.0375 ± 0.0092 | 0.0635 ± 0.035 | -0.0315 ± 0.0064 | -0.0305 ± 0.0092 | -0.0555 ± 0.005 | -0.123 ± 0.026 | -0.018 ± 0.0014 | -0.0275 ± 0.011 | -0.264 ± 0.063 | 0.0135 ± 0.029 | 0.0045 ± 0.015 |
| SAg:CD62E/E-Selectin | -0.0265 ± 0.0021 | -0.0185 ± 0.032 | -0.007 ± 0.0085 | -0.004 ± 0.0057 | 0.0315 ± 0.013 | 0.033 | 0.012 ± 0.014 | 0.0205 ± 0.0021 | 0.04 ± 0.028 | -0.007 ± 0.013 | -0.0485 ± 0.023 | -0.07 ± 0.027 | -0.284 ± 0.018 | -0.0185 ± 0.012 | -0.1 ± 0.016 | -0.625 ± 0.068 | 0 ± 0.014 | -0.0225 ± 0.053 |
| 4H:SRB | -0.0125 ± 0.022 | -0.003 ± 0.013 | -0.0185 ± 0.012 | -0.0105 ± 0.011 | 0.004 ± 0.024 | -0.0095 ± 0.023 | -0.0005 ± 0.012 | -0.0065 ± 0.011 | -0.0085 ± 0.023 | -0.0135 ± 0.0092 | -0.0075 ± 0.005 | -0.015 ± 0.0085 | -0.0485 ± 0.019 | -0.003 ± 0.0085 | 0.0105 ± 0.021 | -0.0205 ± 0.016 | 0.0165 ± 0.0092 | 0.024 ± 0.024 |
| SAg:CD69 | 0.001 ± 0.04 | -0.005 ± 0.023 | -0.021 ± 0.0057 | -0.0075 ± 0.013 | -0.002 ± 0.014 | -0.002 ± 0.021 | -0.013 ± 0.0014 | -0.0035 ± 0.018 | 0.0035 ± 0.016 | 0.0215 ± 0.044 | -0.0295 ± 0.016 | -0.039 ± 0.018 | -0.12 ± 0.013 | -0.028 ± 0.0028 | -0.0845 ± 0.026 | -0.225 ± 0.037 | -0.011 ± 0.017 | -0.0015 ± 0.018 |
| SAg:CD38 | -0.012 ± 0.024 | 0.008 ± 0.013 | 0.0015 ± 0.0035 | -0.0085 ± 0.0092 | -0.01 ± 0.013 | -0.023 ± 0.02 | -0.01 ± 0.021 | -0.0075 ± 0.00071 | -0.037 ± 0.018 | 0.0035 ± 0.0035 | -0.0035 ± 0.00071 | -0.0265 ± 0.013 | -0.0765 ± 0.03 | -0.007 ± 0.028 | -0.0105 ± 0.023 | -0.126 ± 0.0092 | 0.007 ± 0.03 | -0.007 ± 0.042 |
| BT:sIL-2 | -0.042 ± 0.13 | -0.0335 ± 0.022 | 0.0335 ± 0.0021 | 0.042 ± 0.027 | 0.0595 ± 0.029 | -0.0325 ± 0.077 | 0.0065 ± 0.0078 | -0.0215 ± 0.044 | 0.014 ± 0.027 | -0.017 ± 0.11 | -0.033 ± 0.1 | -0.164 ± 0.037 | -0.629 ± 0.044 | 0.0045 ± 0.1 | -0.011 ± 0.016 | -0.511 ± 0.23 | 0.0055 ± 0.0035 | -0.0045 ± 0.019 |
| SAg:SRB | -0.0065 ± 0.011 | -0.0065 ± 0.0078 | -0.005 ± 0.016 | -0.0055 ± 0.028 | -0.0255 ± 0.035 | -0.0335 ± 0.0035 | 0.004 ± 0.0042 | -0.0095 ± 0.0078 | -0.0265 ± 0.011 | 0.002 ± 0.0057 | 0.0045 ± 0.013 | -0.009 ± 0.0042 | -0.0205 ± 0.026 | 0.009 ± 0.0071 | 0.0115 ± 0.0092 | -0.0175 ± 0.028 | 0.0175 ± 0.005 | 0.031 ± 0.017 |
| BF4T:tPA | 0.004 ± 0.031 | -0.0005 ± 0.015 | 0.015 ± 0.0099 | -0.0045 ± 0.0092 | -0.019 ± 0.0028 | 0.0185 ± 0.032 | 0.0135 ± 0.013 | -0.0175 ± 0.00071 | 0.0195 ± 0.018 | 0.005 ± 0.048 | -0.034 ± 0.011 | -0.071 ± 0.023 | -0.0935 ± 0.053 | 0.0005 ± 0.023 | -0.035 ± 0.023 | -0.0325 ± 0.00071 | 0.0185 ± 0.0064 | -0.0135 ± 0.0064 |
| 3C:CD87/uPAR | 0.0055 ± 0.011 | -0.017 ± 0.0057 | -0.0125 ± 0.018 | -0.0065 ± 0.076 | 0.002 ± 0.017 | 0.015 ± 0.048 | 0.04 ± 0.037 | 0.0285 ± 0.022 | 0.0235 ± 0.036 | 0.0255 ± 0.037 | 0.016 ± 0.033 | 0.0565 ± 0.018 | 0.044 ± 0.0071 | 0.0065 ± 0.00071 | 0.0145 ± 0.005 | 0.004 ± 0.017 | 0.0105 ± 0.019 | 0.0225 ± 0.016 |
| BF4T:uPA | 0.0025 ± 0.016 | 0 ± 0.011 | -0.01 ± 0.031 | -0.004 ± 0.0028 | 0.01 ± 0.016 | 0.0395 ± 0.043 | 0.0005 ± 0.016 | 0.0175 ± 0.00071 | 0.0375 ± 0.023 | 0 ± 0.0099 | -0.008 ± 0.0042 | -0.033 ± 0.0028 | -0.026 ± 0.0099 | -0.008 ± 0.028 | -0.009 ± 0.02 | -0.022 ± 0.03 | -0.011 ± 0.035 | -0.012 ± 0.033 |
| BF4T:MMP-3 | 0.0285 ± 0.042 | 0.0005 ± 0.033 | 0.018 ± 0.023 | 0.0175 ± 0.028 | 0.0635 ± 0.026 | 0.087 ± 0.065 | 0.012 ± 0.035 | 0.0625 ± 0.012 | 0.059 ± 0.089 | 0.01 ± 0.02 | -0.02 ± 0.018 | -0.015 ± 0.0057 | 0.0235 ± 0.052 | -0.008 ± 0.021 | 0.0315 ± 0.052 | 0.0525 ± 0.00071 | 0.0185 ± 0.013 | 0.011 ± 0.0014 |
| BT:PBMC Cytotoxicity | 0.0035 ± 0.0064 | 0.012 ± 0.017 | 0.018 ± 0.014 | -0.0055 ± 0.022 | 0.0125 ± 0.033 | 0.097 ± 0.058 | 0.0295 ± 0.0064 | 0.038 ± 0.016 | 0.078 ± 0.047 | 0.002 ± 0.023 | 0.002 ± 0.018 | -0.054 ± 0.017 | -0.085 ± 0.04 | -0.028 ± 0.0014 | -0.073 ± 0.018 | -0.251 ± 0.057 | 0.0115 ± 0.0035 | 0.0115 ± 0.011 |
| BT:sIL-17F | -0.003 ± 0.081 | 0.035 ± 0.081 | 0.059 ± 0.048 | -0.085 ± 0.037 | -0.06 ± 0.11 | -0.072 ± 0.037 | -0.064 ± 0.14 | -0.0825 ± 0.059 | -0.009 ± 0.018 | -0.0825 ± 0.079 | -0.041 ± 0.12 | -0.092 ± 0.054 | -0.254 ± 0.025 | -0.169 ± 0.0071 | -0.393 ± 0.017 | -0.673 ± 0.061 | 0.062 ± 0.023 | 0.0585 ± 0.011 |
| BF4T:CCL2/MCP-1 | -0.0025 ± 0.0021 | -0.018 ± 0.0014 | -0.01 ± 0.041 | 0.005 ± 0.072 | 0.0255 ± 0.022 | 0.07 ± 0.016 | 0.0145 ± 0.005 | 0.0095 ± 0.035 | -0.0565 ± 0.21 | 0.0185 ± 0.015 | 0.0025 ± 0.019 | -0.006 ± 0.011 | -0.021 ± 0.0099 | -0.009 ± 0.013 | -0.01 ± 0.0028 | -0.0325 ± 0.029 | -0.0135 ± 0.015 | -0.0245 ± 0.066 |
